Results: patent US20210060013A1, “Method for Preventing Triple Negative Breast Cancer in Predisposed Subjects” (Southern University of Science and Technology, priority 2019, published 2021)

Experiments:
MMTV-PyMT mice = assay: MMTV-PyMT mouse model of breast cancer, preventive crenolanib treatment; type: in vivo; settings: for tumor growth (tumor volumes by calipers) vs vehicle-treated mice: measured every 5 d, beginning at day 10, FIGS. 1A, 1B
Protocol: FIGS. 1A to 1C show the ability of the present invention to prevent the development of mammary tumors in a subject genetically predisposed and at high risk of developing breast cancer. MMTV-PyMT mice were administered crenolanib starting at 8 weeks of age, before the development of palpable mammary tumors. FIG. 1A: Mice were treated with 20 mg/kg crenolanib, dissolved in vehicle, intraperitoneally once daily for 35 days. FIG. 1B: Tumor sizes were measured using digital calipers every 5 days during treatment and volumes were calculated using a standard formula ((length×width)/2)). Control mice were treated with vehicle alone. FIG. 1C: At the end of crenolanib treatment, mice were sacrificed, and final tumor weight was determined.
In the MMTV-PyMT mouse model of breast cancer, the Polyoma Virus middle T antigen is expressed under the control of the mouse mammary tumor virus promoter, which results in spontaneous formation of mammary tumors in female mice. This model effectively recapitulates all of the stages of human disease, and mice develop tumors begin developing palpable mammary tumors at approximately 13 weeks of age (Guy, Cardiff, & Muller, 1992). Therefore, the MMTV-PyMT model is a highly reproducible and highly faithful model for the development of TNBC.
Animal Studies. All animal procedures were approved by the Institutional Animal Care and Use Committee at Southern University of Science and Technology. Twelve 8-wk-old female MMTV-PyMT mice were divided into six groups. The two mice in each group were littermates. Each group of mice was treated with crenolanib (20 mg/kg, dissolved in vehicle; Selleck) or vehicle [5% (vol/vol) glycerol formal; Sigma] intraperitoneally once daily for 35 d. Once palpable, tumor sizes were measured with a digital caliper every 5 d, and the volumes were calculated using the formula (length×width)/2. Data were reported as means±SE. At the end of crenolanib treatment, mice were killed, and tumors were harvested and weighted.
In vivo analysis also validated that PDGFRB was prominently expressed in tumor associated stromal cells, including spindle-shaped fibroblasts, but not in tumor tissues by using the polyoma middle T (PyMT) oncogene-driven breast cancer mouse model, which mimics all identifiable stages of human breast cancer progression (28) (data not shown). […] To further analyze the paracrine effects of breast cancer cells on fibroblast expansion, the inventors assessed the ligand secretion by breast cancer cells (data not shown). […] Tumor volumes in crenolanib-treated and untreated mice were measured every 5 d after dosing initiation. […] In addition, tumor weight per mouse at sacrifice (12 wk) was 55% lower in crenolanib-treated mice than in vehicle-treated mice (FIG. 1C).

PDGFRβ [1] = assay: Induced PDGFRβ pathway signaling in human mammary fibroblasts (Western blot); type: cell-based
Protocol: SDS/PAGE and Western Blot Analysis. The labeling performance of probe 1 to various bait proteins was characterized by high-resolution SDS/PAGE using the PROTEAN II xi Cell electrophoresis instrument (gel size, 16×20 cm; Bio-Rad) and Coomassie brilliant blue staining. Equal amounts of protein were separated by SDS/PAGE and transferred to membranes. Membranes were blocked in 5% (wt/vol) BSA and then incubated with a primary antibody overnight at 4° C., followed by an incubation with an HRP-conjugated anti-rabbit or anti-mouse secondary antibody (Cell Signaling Technology). Proteins were visualized using a Western ECL Substrate Kit (Bio-Rad). The primary antibodies used in this study were streptavidin-HRP (Thermo Fisher), anti-4G10 (Merck Millipore), anti-His (Cell Signaling Technology), anti-EGFR (Cell Signaling Technology), anti-ERBB2 (Cell Signaling Technology), anti-PDGFRB (Cell Signaling Technology), anti-p-STAT3 (Cell Signaling Technology), anti-p-AKT (Cell Signaling Technology), anti-AKT (Cell Signaling Technology), anti-p-ERK 1/2 (Cell Signaling Technology), anti-ERK 1/2 (Cell Signaling Technology), and anti-β-actin (Beyotime).
In addition, the ability of the present invention to block PDGFR signaling in a conditioned media in vitro system was investigated. […]

PDGFRβ [2] = molecular target: PDGFRβ (Homo sapiens, UniProt P09619); settings: cited from earlier work
PDGFRβ (Homo sapiens, UniProt P09619), sequence (P09619 33-1106): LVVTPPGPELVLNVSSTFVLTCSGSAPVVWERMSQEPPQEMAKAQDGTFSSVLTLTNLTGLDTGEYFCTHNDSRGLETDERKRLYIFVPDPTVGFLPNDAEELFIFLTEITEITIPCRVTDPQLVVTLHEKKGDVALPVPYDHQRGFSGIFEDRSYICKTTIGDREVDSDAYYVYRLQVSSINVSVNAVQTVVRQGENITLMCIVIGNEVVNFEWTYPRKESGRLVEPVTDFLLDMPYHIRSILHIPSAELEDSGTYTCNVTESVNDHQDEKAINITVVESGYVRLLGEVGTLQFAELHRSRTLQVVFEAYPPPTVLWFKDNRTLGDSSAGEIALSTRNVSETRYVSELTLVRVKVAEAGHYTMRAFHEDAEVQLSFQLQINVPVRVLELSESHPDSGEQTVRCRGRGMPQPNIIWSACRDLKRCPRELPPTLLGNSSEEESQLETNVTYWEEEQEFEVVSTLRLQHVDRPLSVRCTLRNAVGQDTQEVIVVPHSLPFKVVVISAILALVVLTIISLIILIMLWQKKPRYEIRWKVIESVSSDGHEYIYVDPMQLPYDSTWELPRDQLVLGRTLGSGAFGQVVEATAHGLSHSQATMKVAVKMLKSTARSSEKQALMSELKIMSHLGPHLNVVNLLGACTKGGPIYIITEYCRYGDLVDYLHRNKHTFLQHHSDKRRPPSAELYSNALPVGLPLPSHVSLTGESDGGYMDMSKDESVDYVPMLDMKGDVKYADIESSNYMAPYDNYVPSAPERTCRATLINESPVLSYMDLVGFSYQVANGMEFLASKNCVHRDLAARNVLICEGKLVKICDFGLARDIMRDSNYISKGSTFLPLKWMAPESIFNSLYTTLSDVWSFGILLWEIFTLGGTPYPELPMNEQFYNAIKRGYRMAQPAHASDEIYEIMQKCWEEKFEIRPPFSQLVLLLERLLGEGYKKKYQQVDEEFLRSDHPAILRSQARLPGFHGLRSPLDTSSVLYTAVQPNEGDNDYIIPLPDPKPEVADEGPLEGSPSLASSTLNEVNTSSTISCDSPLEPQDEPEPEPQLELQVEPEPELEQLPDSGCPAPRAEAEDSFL

[3] = test system: other known RTKs (e.g., VEGFR or fibroblast growth factor receptor) or serine/threonine kinases (e.g. Abl, Raf); settings: at concentrations that are used clinically; cited from earlier work
[4] = test system: inflammatory breast cancer cells; settings: in vitro; cited from earlier work
PDGFRα = PDGFRα (Homo sapiens, UniProt P16234); settings: cited from earlier work
PDGFRα, sequence (P16234 24-1089): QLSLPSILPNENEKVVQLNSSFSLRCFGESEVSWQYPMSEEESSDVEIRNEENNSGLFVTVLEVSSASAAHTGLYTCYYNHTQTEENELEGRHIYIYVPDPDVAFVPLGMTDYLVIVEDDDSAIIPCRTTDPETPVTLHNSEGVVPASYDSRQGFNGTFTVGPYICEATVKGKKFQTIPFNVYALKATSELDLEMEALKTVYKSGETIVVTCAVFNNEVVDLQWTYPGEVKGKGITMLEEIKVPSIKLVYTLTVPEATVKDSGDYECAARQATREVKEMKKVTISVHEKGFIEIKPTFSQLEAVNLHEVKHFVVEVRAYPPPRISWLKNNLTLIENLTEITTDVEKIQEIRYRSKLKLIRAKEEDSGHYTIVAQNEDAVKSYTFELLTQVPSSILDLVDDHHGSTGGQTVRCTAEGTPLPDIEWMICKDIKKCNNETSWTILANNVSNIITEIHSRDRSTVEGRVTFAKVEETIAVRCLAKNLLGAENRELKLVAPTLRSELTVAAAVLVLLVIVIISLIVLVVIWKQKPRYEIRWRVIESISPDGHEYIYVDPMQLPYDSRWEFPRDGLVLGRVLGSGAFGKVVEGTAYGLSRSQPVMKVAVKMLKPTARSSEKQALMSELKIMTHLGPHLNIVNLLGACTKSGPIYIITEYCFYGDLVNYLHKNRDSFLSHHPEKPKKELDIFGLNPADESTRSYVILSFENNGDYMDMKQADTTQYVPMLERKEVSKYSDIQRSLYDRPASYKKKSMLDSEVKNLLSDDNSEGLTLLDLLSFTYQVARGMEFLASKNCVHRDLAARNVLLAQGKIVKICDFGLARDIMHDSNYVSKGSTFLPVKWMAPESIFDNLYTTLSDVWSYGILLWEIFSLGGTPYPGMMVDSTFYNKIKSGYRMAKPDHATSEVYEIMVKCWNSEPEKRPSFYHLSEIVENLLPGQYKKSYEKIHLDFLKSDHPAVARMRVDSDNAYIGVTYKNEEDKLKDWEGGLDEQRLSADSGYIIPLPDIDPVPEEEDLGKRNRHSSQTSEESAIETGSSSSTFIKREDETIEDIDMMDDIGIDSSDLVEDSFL

[5] = in vivo; cited from earlier work
[6] = treatment starting at 8 weeks of age, before palpable mammary tumors

Compound | tumor weight per mouse at sacrifice, lower than in vehicle-treated mice (MMTV-PyMT mice; 20 mg/kg intraperitoneally once daily for 35 d from 8 wk of age, at sacrifice (12 wk), FIG. 1C) [%] | tumor growth (tumor volumes by calipers) vs vehicle-treated mice (MMTV-PyMT mice; 20 mg/kg intraperitoneally once daily for 35 d from 8 wk of age) | tumor growth (tumor volumes by calipers) vs vehicle-treated mice (MMTV-PyMT mice; 20 mg/kg intraperitoneally once daily for 35 d from 8 wk of age, listed as the present invention) | number of tumors (MMTV-PyMT mice; [6]) | tumor volume (MMTV-PyMT mice; [6]) | tumor weight (MMTV-PyMT mice; [6]) | downstream pathway signaling (phosphorylated AK and ERK 1/2) (PDGFRβ [1]; human mammary fibroblasts pre-treated, conditioned media from MDA-MB-468 cells, FIG. 2) | increase in PDGFRβ signaling induced by conditioned media (PDGFRβ [1]; human mammary fibroblasts pretreated with crenolanib, conditioned media from TNBC cell line MDA-MB468, FIG. 2 left half) | inhibition of PDGFRβ (PDGFRβ [2]) | inhibition of other known RTKs or serine/threonine kinases [3] | growth of inflammatory breast cancer cells [4] | inhibition of PDGFRα (PDGFRα) | oral bioavailability [5]
CC1(COc2ccc3c(c2)ncn3-c2ccc3cccc(N4CCC(N)CC4)c3n2)COC1 [crenolanib, 4-Piperidinamine, 1-[2-[5-[(3-methyl-3-oxetanyl)methoxy]-1H-benzimidazol-1-yl]-8-quinolinyl]] | 55 | grew significantly more slowly | significantly prevented tumor growth | reduced | reduced | reduced | inhibited | blocked this increased signaling | highly selective inhibitor | does not inhibit | inhibits the growth | – | –
crenolanib besylate | – | – | – | – | – | – | – | – | ability to inhibit | – | – | ability to inhibit | orally bioavailable
